For 22 molecules, IC50 results are on record in patent publication US10669242B2 (priority 2016, dated 2020).

Each structure is given as a SMILES string.

In the experiment the target is T1, recombinant glucosyltransferase domain of C. difficile Toxin B/TcdB (Clostridioides difficile, UniProt P18177).
T1 construct: 6-His (C); purchased R&D Systems 6246-GT
T1 sequence (P18177 1-543): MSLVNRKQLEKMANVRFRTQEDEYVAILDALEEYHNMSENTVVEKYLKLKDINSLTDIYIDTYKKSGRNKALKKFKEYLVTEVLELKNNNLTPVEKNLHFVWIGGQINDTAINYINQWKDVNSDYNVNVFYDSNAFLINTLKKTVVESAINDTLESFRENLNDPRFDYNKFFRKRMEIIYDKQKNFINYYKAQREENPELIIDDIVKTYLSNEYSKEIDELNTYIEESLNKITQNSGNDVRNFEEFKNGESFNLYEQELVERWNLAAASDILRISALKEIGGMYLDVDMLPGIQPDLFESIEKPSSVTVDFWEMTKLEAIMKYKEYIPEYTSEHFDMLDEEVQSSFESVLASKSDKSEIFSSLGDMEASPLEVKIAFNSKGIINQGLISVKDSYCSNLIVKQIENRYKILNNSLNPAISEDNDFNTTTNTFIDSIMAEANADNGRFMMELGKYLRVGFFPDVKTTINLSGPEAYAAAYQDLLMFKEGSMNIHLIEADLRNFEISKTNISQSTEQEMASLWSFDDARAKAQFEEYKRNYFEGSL
Briefly: biochemical.
On to `Cc1ccc(NC(=O)c2ccc(CN3C(=O)c4ccc(NC(=O)c5ccccn5)cc4NC(=O)[C@H]3C)cc2)nc1` [Example 18d, (R)-N-(3-methyl-4-(4-((5-methylpyridin-2-yl)carbamoyl)benzyl)-2,5-dioxo-2,3,4,5-tetrahydro-1H-benzo[e][1,4]diazepin-8-yl)picolinamide], for which the IC50 fell in the range of 10000 to 35000 nM.
Regarding `O=C(Nc1ccccn1)c1ccc(CN2C(=O)c3ccc(Cl)cc3NC(=O)[C@H]2Cc2ccccn2)cc1` [Example 4v, (R)-4-((8-chloro-2,5-dioxo-3-(pyridin-2-ylmethyl)-2,3-dihydro-1H-benzo[e][1,4]diazepin-4(5H)-yl)methyl)-N-(pyridin-2-yl)benzamide], the IC50 is under 100 nM.
Consider `Cc1cnc(NC(=O)c2ccc(CN3C(=O)c4ccc(Cl)cc4NC(=O)[C@H]3Cc3ccccn3)cc2)nc1` [Example 5l, (R)-4-((8-chloro-2,5-dioxo-3-(pyridin-2-ylmethyl)-2,3-dihydro-1H-benzo[e][1,4]diazepin-4(5H)-yl)methyl)-N-(5-methylpyrimidin-2-yl)benzamide], for which the IC50 is under 100 nM.
Regarding `O=C(Nc1ccccn1)c1ccc(CN2C(=O)c3ccc(Cl)cc3NC(=O)[C@H]2Cc2ccc(Cl)cc2)cc1` [Example 4j, (R)-4-((8-chloro-3-(4-chlorobenzyl)-2,5-dioxo-2,3-dihydro-1H-benzo[e][1,4]diazepin-4(5H)-yl)methyl)-N-(pyridin-2-yl)benzamide], the IC50 was in the range of 1000 to 10000 nM.
Consider `O=C1CN(Cc2ccc(C(=O)Nc3ccccn3)cc2)C(=O)c2ccc(Cl)cc2N1` [Example 4am, 4-((8-chloro-2,5-dioxo-2,3-dihydro-1H-benzo[e][1,4]diazepin-4(5H)-yl)methyl)-N-(pyridin-2-yl)benzamide], for which the IC50 is 100 to 999 nM.
Turning to `O=C1Nc2cc(Cl)ccc2C(=O)N(C[C@H]2CC[C@H](C(=O)c3ccccn3)CC2)[C@@H]1Cc1ccccn1` [Example 11c, (R)-8-chloro-4-((4-picolinoylcyclohexyl)methyl)-3-(pyridin-2-ylmethyl)-3,4-dihydro-1H-benzo[e][1,4]diazepine-2,5-dione], the IC50 was under 100 nM.
Next, `Cc1ccc(NC(=O)c2ccc(CN3C(=O)c4ccc(Cl)cc4NC(=O)[C@H]3Cc3ccccn3)cc2F)nc1` [Example 6d, (R)-4-((8-chloro-2,5-dioxo-3-(pyridin-2-ylmethyl)-2,3-dihydro-1H-benzo[e][1,4]diazepin-4(5H)-yl)methyl)-2-fluoro-N-(5-methylpyridin-2-yl)benzamide]: under 100 nM; `O=C(Nc1ccccn1)c1ccc(CN2C(=O)c3ccc(Cl)cc3NC(=O)[C@H]2Cc2ccccc2F)cc1` [Example 4an, (R)-4-((8-chloro-3-(2-fluorobenzyl)-2,5-dioxo-2,3-dihydro-1H-benzo[e][1,4]diazepin-4(5H)-yl)methyl)-N-(pyridin-2-yl)benzamide]: under 100 nM; `O=C(Nc1ccc(F)cn1)c1ccc(CN2C(=O)c3ccc(Cl)cc3NC(=O)[C@H]2Cc2ccccn2)cc1Cl` [Example 5ao, (R)-2-chloro-4-((8-chloro-2,5-dioxo-3-(pyridin-2-ylmethyl)-2,3-dihydro-1H-benzo[e][1,4]diazepin-4(5H)-yl)methyl)-N-(5-fluoropyridin-2-yl)benzamide]: under 100 nM.
Consider `O=C(Nc1nccs1)c1ccc(CN2C(=O)c3ccc(Cl)cc3NC(=O)[C@H]2Cc2cccnc2)cc1` [Example 4c, (R)-4-((8-chloro-2,5-dioxo-3-(pyridin-3-ylmethyl)-2,3-dihydro-1H-benzo[e][1,4]diazepin-4(5H)-yl)methyl)-N-(thiazol-2-yl)benzamide], for which the IC50 is under 100 nM.
`O=C(O)c1ccc(CN2C(=O)c3ccc(Cl)cc3NC(=O)[C@H]2Cc2ccccn2)cc1-c1ccc(F)cc1` [Example 8d, (R)-5-((8-chloro-2,5-dioxo-3-(pyridin-2-ylmethyl)-2,3-dihydro-1H-benzo[e][1,4]diazepin-4(5H)-yl)methyl)-4′-fluoro-[1,1′-biphenyl]-2-carboxylic acid]: the IC50 was 100 to 999 nM.
`O=C(CN1CCCC1)Nc1cc(CN2C(=O)c3ccc(Cl)cc3NC(=O)[C@H]2Cc2ccccn2)ccc1C(=O)O` [Example 22n]: the IC50 fell in the range of 100 to 999 nM.
Under `Cc1ccc2c(c1)NC(=O)[C@@H](Cc1ccc(Cl)c(Cl)c1)N(Cc1ccc(C(=O)O)cc1)C2=O` [Example 1e] stands 10000 to 35000 nM.
As to `Cc1ccc(NC(=O)c2ccc(CN3C(=O)c4ccc(Cl)cc4NC(=O)[C@H]3Cc3ccccn3)s2)nc1` [Example 4bs, (R)-5-((8-chloro-2,5-dioxo-3-(pyridin-2-ylmethyl)-2,3-dihydro-1H-benzo[e][1,4]diazepin-4(5H)-yl)methyl)-N-(5-methylpyridin-2-yl)thiophene-2-carboxamide], the IC50 lay within 100 to 999 nM.
On to `COc1cnc(NC(=O)c2ccc(CN3C(=O)c4ccc(Cl)cc4NC(=O)[C@H]3Cc3ccccn3)s2)nc1` [Example 5r, (R)-5-((8-chloro-2,5-dioxo-3-(pyridin-2-ylmethyl)-2,3-dihydro-1H-benzo[e][1,4]diazepin-4(5H)-yl)methyl)-N-(5-methoxypyrimidin-2-yl)thiophene-2-carboxamide], for which the IC50 fell in the range of 100 to 999 nM.
Turning to `O=C(Nc1ccccn1)c1ccc(CN2C(=O)c3ccc(Cl)cc3NC(=O)[C@H]2Cc2cccc(F)c2)cc1` [Example 35j], the IC50 is under 100 nM.
For `N#Cc1ccc(NC(=O)c2ccc(CN3C(=O)c4ccc(Cl)cc4NC(=O)[C@H]3Cc3ccccn3)cc2Cl)nc1` [Example 5au, (R)-2-chloro-4-((8-chloro-2,5-dioxo-3-(pyridin-2-ylmethyl)-2,3-dihydro-1H-benzo[e][1,4]diazepin-4(5H)-yl)methyl)-N-(5-cyanopyridin-2-yl)benzamide], the IC50 was under 100 nM.
As to `O=C(Nc1ccccn1)c1ccc(CN2C(=O)c3ccc(Cl)cc3NC(=O)[C@H]2Cc2ccccn2)s1` [Example 4bq, (R)-5-((8-chloro-2,5-dioxo-3-(pyridin-2-ylmethyl)-2,3-dihydro-1H-benzo[e][1,4]diazepin-4(5H)-yl)methyl)-N-(pyridin-2-yl)thiophene-2-carboxamide], the IC50 fell in the range of 100 to 999 nM.
As for `O=C(O)c1ccc(CN2C(=O)c3ccc(Cl)cc3NC(=O)[C@H]2Cc2ccccn2)cc1-c1cccnc1` [Example 8m, (R)-4-((8-chloro-2,5-dioxo-3-(pyridin-2-ylmethyl)-2,3-dihydro-1H-benzo[e][1,4]diazepin-4(5H)-yl)methyl)-2-(pyridin-3-yl)benzoic acid], the IC50 lay within 1000 to 10000 nM.
Consider `CC(=O)Nc1ccc2c(c1)NC(=O)[C@@H](C)N(Cc1ccc(C(=O)Nc3ccc(C)cn3)cc1)C2=O` [Example 17a, (R)-4-((8-Acetamido-3-methyl-2,5-dioxo-2,3-dihydro-1H-benzo[e][1,4]diazepin-4(5H)-yl)methyl)-N-(5-methylpyridin-2-yl)benzamide], for which the IC50 is 100 to 999 nM.
With `Cc1ccc(NC(=O)c2ccc(CN3C(=O)c4ccc(N)cc4NC(=O)[C@H]3C)cc2)nc1` [Example 16a, (R)-4-((8-Amino-3-methyl-2,5-dioxo-2,3-dihydro-1H-benzo[e][1,4]diazepin-4(5H)-yl)methyl)-N-(5-methylpyridin-2-yl)benzamide], the IC50 was 1000 to 10000 nM.
Next, `C[C@@H]1C(=O)Nc2cc(Cl)ccc2C(=O)N1Cc1ccc(C(=O)Nc2ccc(N3CCOCC3)cn2)cc1` [Example 4bf, (R)-4-((8-chloro-3-methyl-2,5-dioxo-2,3-dihydro-1H-benzo[e][1,4]diazepin-4(5H)-yl)methyl)-N-(5-morpholinopyridin-2-yl)benzamide]: 100 to 999 nM.

A word on the IC50: it is the concentration at which inhibition is half-maximal.
